# Reference: DBAASP
# Tests used:
# Experiment in all cases: ≥ marks a high value that may be exact or a test limit, other limits are often not marked, values filed in µg/mL are converted to µM
# [1] = tested on: Klebsiella pneumoniae ATCC 13883
# [2] = tested on: Acinetobacter baumannii ATCC 19606
# [3] = tested on: Escherichia coli ATCC 25922
# [4] = tested on: Candida parapsilosis ATCC 22019
# [5] = tested on: Streptococcus pyogenes ATCC 19615
# Saccharomyces cerevisiae = tested on: Saccharomyces cerevisiae
# [6] = tested on: Staphylococcus aureus ATCC 25923
# [7] = tested on: Staphylococcus aureus ATCC BAA-44
# [8] = tested on: Candida albicans ATCC 90028
# [9] = tested on: Pseudomonas aeruginosa ATCC 27853
# Listeria ivanovii = tested on: Listeria ivanovii
# [10] = tested on: Enterococcus faecalis ATCC 29212
# Staphylococcus aureus MR = tested on: Staphylococcus aureus MR
# [11] = tested on: Staphylococcus epidermidis NRRL B-4268
# [12] = tested on: Escherichia coli ATCC 10536
# [13] = tested on: Trichophyton mentagrophytes
# Cryptococcus neoformans = tested on: Cryptococcus neoformans
# [14] = tested on: Pseudomonas aeruginosa ATCC BAA-427
# [15] = tested on: Bacillus subtilis ATCC 6633
# Aspergillus fumigatus = tested on: Aspergillus fumigatus
# [16] = tested on: Klebsiella pneumoniae ATCC 27736
# Candida albicans = tested on: Candida albicans
# [17] = tested on: Staphylococcus aureus ATCC 9144
# Sporothrix schenckii = tested on: Sporothrix schenckii
# [18] = tested on: Staphylococcus aureus ATCC 43300
# Staphylococcus aureus = tested on: Staphylococcus aureus
# Streptococcus pyogenes = tested on: Streptococcus pyogenes
# [19] = tested on: Escherichia coli ATCC 35218
# [20] = tested on: Streptococcus sp. Group G
# [21] = tested on: Staphylococcus saprophyticus
# Escherichia coli = tested on: Escherichia coli
# Escherichia coli ESBL = tested on: Escherichia coli ESBL
# Pseudomonas aeruginosa = tested on: Pseudomonas aeruginosa
# [22] = tested on: Staphylococcus epidermidis
# [23] = tested on: Staphylococcus aureus ATCC 29213
# [24] = tested on: Staphylococcus haemolyticus
# [25] = tested on: Streptococcus sp. Group C
# Candida krusei ATCC 6258 = tested on: Candida krusei ATCC 6258
# [26] = tested on: Bacillus subtilis ATCC 19659
# [27] = tested on: Cryptococcus neoformans ATCC 90012
# [28] = tested on: Salmonella enterica subsp. enterica serovar Typhi ATCC 5784
# Escherichia coli O157:H7 = tested on: Escherichia coli O157:H7
# [29] = tested on: Salmonella enterica subsp. enterica serovar Typhi
# [30] = tested on: Lysinibacillus sphaericus TISTR 678
# Vibrio cholerae = tested on: Vibrio cholerae
# Bacillus megaterium = tested on: Bacillus megaterium
compound,measurement,setting,value
CC[C@H](C)[C@H](NC(=O)[C@H](CCCN=C(N)N)NC(=O)[C@H](CCCN=C(N)N)NC(=O)[C@H](CC(C)C)NC(=O)[C@H](Cc1ccccc1)NC(=O)[C@H](Cc1ccccc1)NC(=O)[C@@H](N)Cc1ccccc1)C(=O)N[C@@H](Cc1ccccc1)C(=O)O [FFFLRRIF],MIC,[1],≥ 100 µM
same,MIC,[2],> 100 µM
same,MIC,[3],> 100 µM
same,MIC,[4],≥ 100 µM
same,MIC,[5],≥ 50 µM
same,MIC,Saccharomyces cerevisiae,≥ 100 µM
same,MIC,[6],100 µM
same,MIC,[7],≥ 100 µM
same,MIC,[8],≥ 100 µM
same,MIC,[9],> 100 µM
same,MIC,Listeria ivanovii,≥ 100 µM
same,MIC,[10],> 100 µM
CC(C)C[C@H](NC(=O)[C@H](CCCCN)NC(=O)[C@H](CC(C)C)NC(=O)[C@@H](NC(=O)[C@H](CCCN=C(N)N)NC(=O)[C@H](CCCN=C(N)N)NC(=O)[C@@H](NC(=O)[C@H](Cc1c[nH]c2ccccc12)NC(=O)[C@H](CCCCN)NC(=O)[C@H](CCCN=C(N)N)NC(=O)[C@@H](NC(=O)[C@H](CCCN=C(N)N)NC(=O)[C@H](CCCN=C(N)N)NC(=O)[C@@H](N)C(C)C)C(C)C)C(C)C)C(C)C)C(=O)N[C@H](C(N)=O)C(C)C [VRRVRKWVRRVLKLV],MIC,Staphylococcus aureus MR,12.5 µM
same,MIC,[11],6 µM
same,MIC,[12],3 µM
same,MIC,[4],1.5 µM
same,MIC,[13],6 µM
same,MIC,Cryptococcus neoformans,8.4 µM
same,MIC,[14],3.2 µM
same,MIC,[15],6.8 µM
same,MIC,Aspergillus fumigatus,8.4 µM
same,MIC,[16],3.2 µM
same,MIC,Candida albicans,9.6 µM
same,MIC,[17],5.1 µM
same,MIC,Sporothrix schenckii,6 µM
NC(=O)[C@H](Cc1c[nH]c2ccccc12)NC(=O)[C@H](Cc1c[nH]c2ccccc12)NC(=O)[C@H](Cc1c[nH]c2ccccc12)NC(=O)[C@H](Cc1c[nH]c2ccccc12)NC(=O)[C@@H]1CCCN1C(=O)[C@H](CCCN=C(N)N)NC(=O)[C@@H]1CCCN1C(=O)[C@H](CCCN=C(N)N)NC(=O)[C@@H]1CCCN1C(=O)[C@H](CCCN=C(N)N)NC(=O)[C@@H]1CCCN1C(=O)[C@H](CCCN=C(N)N)NC(=O)[C@@H](N)CCCN=C(N)N [RRPRPRPRPWWWW],MIC,[18],8.28 µM
same,MIC,Staphylococcus aureus,11.7 µM
same,MIC,Streptococcus pyogenes,11.7 µM
same,MIC,[19],8.28 µM
same,MIC,[20],11.7 µM
same,MIC,[3],8.28 µM
same,MIC,[21],≥ 33.1 µM
same,MIC,[5],8.28 µM
same,MIC,Escherichia coli,8.28 µM
same,MIC,Escherichia coli ESBL,16.6 µM
same,MIC,Pseudomonas aeruginosa,66.2 µM
same,MIC,[9],33.1 µM
same,MIC,[22],4.14 µM
same,MIC,[23],8.28 µM
same,MIC,[24],4.14 µM
same,MIC,[25],4.14 µM
CC[C@H](C)[C@H](NC(=O)[C@H](C)NC(=O)CNC(=O)[C@H](Cc1ccccc1)NC(=O)[C@@H](NC(=O)[C@@H](N)CC(=O)O)[C@@H](C)CC)C(=O)N[C@@H](Cc1c[nH]c2ccccc12)C(=O)N1CCC[C@H]1C(=O)N[C@@H](CC(C)C)C(=O)N[C@@H](C)C(=O)N[C@@H](CC(C)C)C(=O)NCC(=O)N[C@@H](C)C(=O)N[C@@H](CC(C)C)C(=O)N[C@@H](CCCCN)C(=O)N[C@@H](CC(N)=O)C(=O)N[C@@H](CC(C)C)C(=O)N[C@H](C(=O)N[C@@H](CCCCN)C(N)=O)[C@@H](C)CC [DIFGAIWPLALGALKNLIK],MIC,[3],> 128 µM
same,MIC,[4],16 µM
same,MIC,Candida krusei ATCC 6258,16 µM
same,MIC,[6],8 µM
same,MIC,[26],4 µM
same,MIC,[8],16 µM
same,MIC,[27],16 µM
same,MIC,[9],> 128 µM
CC(C)C[C@H](NC(=O)CNC(=O)[C@H](C)NC(=O)[C@H](CCCCN)NC(=O)[C@H](CCCCN)NC(=O)[C@@H](N)CC(N)=O)C(=O)N[C@@H](Cc1ccccc1)C(=O)N[C@H](C(=O)N[C@H](C(=O)N[C@@H](CCC(N)=O)C(=O)N[C@@H](Cc1ccccc1)C(=O)N1CCC[C@H]1C(=O)N[C@@H](CCCCN)C(=O)N[C@@H](CCCCN)C(=O)N[C@@H](Cc1ccc(O)cc1)C(=O)O)C(C)C)C(C)C [NKKAGLFVVQFPKKY],MIC,[28],≥ 64 µM
same,MIC,Escherichia coli O157:H7,≥ 64 µM
same,MIC,[29],≥ 64 µM
same,MIC,[30],≥ 64 µM
same,MIC,Vibrio cholerae,≥ 52 µM
same,MIC,Bacillus megaterium,28.3 µM
